Data taken from PMC6105804, “In Vitro and In Vivo Evaluation of APX001A/APX001 and Other Gwt1 Inhibitors against Cryptococcus” (Antimicrobial Agents and Chemotherapy, 2018).
In brackets after ≈: the same amount, converted by molar mass. Like-named read-outs stand apart in the source and are kept apart here. Values belong to the compound of their own block, whether it stands above or below them.

Assays:
C. gattii = assay: Broth microdilution susceptibility testing (CLSI M27-A3); type: cell-based; settings: Cryptococcus gattii
Description: (§1) C. neoformans strains H99, DUMC 118.00, and DUMC 158.03 and C. gattii strains R272 and RSA-MW-3515 were obtained from Duke University. C. albicans 90028, A. fumigatus MYA3626, C. neoformans 14116, C. neoformans 76484, and the pathogenic Cryptococcus reference strains panel (ATCC MP-11) were obtained from the American Type Culture Collection (ATCC; Manassas, VA, USA). The ATCC MP-11 panel consists of strains representing eight molecular types and three subtypes of C. neoformans and C. gattii.
(§2) To establish the antimicrobial activity of the APX001A analogs, broth microdilution susceptibility testing was performed according to Clinical and Laboratory Standards Institute (CLSI) guidelines M27-A3 ([47]) for yeasts and M38-A2 for molds ([48]). APX001A and analogs were first diluted in DMSO to obtain intermediate dilutions. These were further diluted in microtiter plates to obtain a final concentration of 2 to 0.002 μg/ml. One microliter of DMSO was added to the no-drug control wells. The solutions were mixed on a plate shaker for 10 min, and the plates were incubated at 35°C for 40 to 48 h (C. albicans, A. fumigatus) and 72 h (C. neoformans). The minimum concentration that led to a 50% reduction in fungal growth compared to that for the control (determined with the aid of a reading mirror) was determined as the MIC for C. albicans and C. neoformans. The minimum concentration that led to the shortening of hyphae compared to the hyphal growth in DMSO control wells was determined as the minimum effective concentration (MEC) for A. fumigatus (as read for the echinocandins). The use of the MIC and MEC endpoints for APX001A (formerly E1210) against yeasts and molds, respectively, has been described previously ([19][–][21]). For the cryptococcal synergy studies, APX001A and APX2020 MIC values were read at 50% inhibition.

[1] = system: FLC-susceptible and FLC-nonsusceptible/resistant strains of C. neoformans and C. gattii; assay: Broth microdilution, summary over the 18-strain Cryptococcus collection; type: cell-based, Cryptococcus neoformans and Cryptococcus gattii; settings: 18 strains of C. neoformans and C. gattii
Protocol: as §2, with “The minimum concentration that led to the shortening of hyphae compared to the hyphal growth in DMSO control wells was determined as the minimum effective concentration (MEC) for A. fumigatus (as read for the echinocandins).” left out

C. neoformans [2] = assay: Broth microdilution susceptibility testing (CLSI M27-A3); type: cell-based, Cryptococcus neoformans; settings: for MIC: Cryptococcus neoformans
Description: as §1, §2

A. fumigatus MYA3626 = assay: Broth microdilution susceptibility testing for molds (CLSI M38-A2); type: cell-based; settings: Aspergillus fumigatus, MYA3626; read-out: MIC or MEC for A. fumigatus MYA3626
Description: as §1, §2

C. albicans 90028 = assay: Broth microdilution susceptibility testing (CLSI M27-A3); type: cell-based, Candida albicans; settings: Candida albicans, 90028; read-out: MIC, C. albicans 90028
Description: as §1, §2

C. neoformans H99 = assay: Microtiter checkerboard synergy with FLC; type: cell-based, Cryptococcus neoformans; settings: in combination with FLC, MIC read at 50% inhibition, synergy FICI < 0.5
Protocol: An important consideration for developing a new treatment for CM is the potential for inclusion in combination therapy. We evaluated the synergy of APX001A and APX2020 in combination with FLC using standard microtiter dilution techniques ([33]). […] Importantly, no antagonism was observed.
as §2, with “The use of the MIC and MEC endpoints for APX001A (formerly E1210) against yeasts and molds, respectively, has been described previously ([19][–][21]). For the cryptococcal synergy studies, APX001A and APX2020 MIC values were read at 50% inhibition.” left out

[3] = Single-dose mouse pharmacokinetics of prodrugs with or without ABT; type: in vivo; settings: for AUC: male, CD-1, mouse, plasma, 26 mg/kg
Protocol: The area under the curve (AUC) was calculated from time zero to the time of the last measurable concentration. The active metabolite concentrations in plasma (APX001A, APX2039, APX2020, and APX2041) were determined by liquid chromatography-tandem mass spectrometry. PK parameters were determined using Phoenix WinNonlin (v7.0) software and a noncompartmental model.

C. neoformans [4] = system: C. neoformans; set-up: method as in PMID 23740727; settings: 46 strains of C. neoformans, global study; cited from earlier work

MIC (C. gattii; C. gattii isolate MYA-4093, read-out: MIC): 0.125 µg/mL | MIC (C. gattii; C. gattii isolate MYA-4094, read-out: MIC): 0.25 µg/mL | MIC (C. gattii; C. gattii isolate MYA-4560 (first listing, r17), read-out: MIC): 0.063 µg/mL | MIC (C. gattii; C. gattii isolate MYA-4560 (second listing, r21), read-out: MIC): 0.063 µg/mL | MIC (C. gattii; C. gattii isolate MYA-4561, read-out: MIC): 0.125 µg/mL | MIC (C. gattii; C. gattii isolate MYA-4562, read-out: MIC): 0.125 µg/mL | MIC (C. gattii; C. gattii isolate MYA-4563, read-out: MIC): 0.125 µg/mL | MIC (C. gattii; C. gattii isolate MYA-4877, read-out: MIC): 0.063 µg/mL | MIC (C. gattii; C. gattii isolate RSA-MW-3615 (FLC resistant), read-out: MIC): 0.031 µg/mL | MIC (C. gattii; Table 1, 50% growth inhibition for FLC, caspofungin and APX compounds, 100% for AMB, read-out: MIC, C. gattii WM276): 0.031 µg/mL | MIC90 [1]: 0.25 µg/mL | MIC ([1]; read-out: Geometric mean MIC): 0.085 µg/mL | MIC (C. neoformans [2]; 72 h, Table 1, 50% growth inhibition for FLC, caspofungin and APX compounds, 100% for AMB, 72 h, read-out: MIC, C. neoformans H99): 0.031 µg/mL | MIC (C. neoformans [2]; C. neoformans isolate 14116, read-out: MIC): 0.031 µg/mL | MIC (C. neoformans [2]; C. neoformans isolate 76484, read-out: MIC): 0.063 µg/mL | MIC (C. neoformans [2]; C. neoformans isolate DUMC 118.00 (FLC resistant), read-out: MIC): 0.063 µg/mL | MIC (C. neoformans [2]; C. neoformans isolate DUMC 158.03 (FLC resistant), read-out: MIC): 0.25 µg/mL | MIC (C. neoformans [2]; C. neoformans isolate MYA-4564, read-out: MIC): 0.063 µg/mL | MIC (C. neoformans [2]; C. neoformans isolate MYA-4565, read-out: MIC): 0.25 µg/mL | MIC (C. neoformans [2]; C. neoformans isolate MYA-4566, read-out: MIC): 0.125 µg/mL | MIC (C. neoformans [2]; C. neoformans isolate MYA-4567, read-out: MIC): 0.063 µg/mL | MIC (C. neoformans [2]; Table 2, C. neoformans isolate H99, read-out: MIC): 0.031 µg/mL | MIC (A. fumigatus MYA3626): 0.031 µg/mL | MIC (C. albicans 90028): 0.016 µg/mL | Ratio of AUC with ABT/AUC without ABT, i.p. dosing ([3]; 26 mg/kg prodrug): 8.3 | Ratio of AUC with ABT/AUC without ABT, p.o. dosing ([3]; 26 mg/kg prodrug): 9.3 | AUC ([3]; intraperitoneal, AUC of analyte after 26 mg/kg prodrug, 100 mg/kg ABT orally 2 h before, read-out: Avg AUC resulting from 26-mg/kg dose, i.p. dosing + ABT): 35600 ± 28200 ng·h/mL | AUC ([3]; ip, AUC of analyte after 26 mg/kg of the corresponding prodrug, male CD-1 mice, no ABT, read-out: Avg AUC resulting from 26-mg/kg dose, i.p. dosing): 4310 ± 960 ng·h/mL | AUC ([3]; po, AUC of analyte after 26 mg/kg prodrug, 100 mg/kg ABT orally 2 h before, read-out: Avg AUC resulting from 26-mg/kg dose, p.o. dosing + ABT): 41900 ± 6410 ng·h/mL | AUC ([3]; po, AUC of analyte in plasma after 26 mg/kg of the corresponding prodrug, male CD-1 mice, no ABT, read-out: Avg AUC resulting from 26-mg/kg dose, p.o. dosing): 4490 ± 2320 ng·h/mL
SMILES: Nc1ncccc1-c1cc(Cc2ccc(OCc3ccccc3)cc2)no1 [APX2020]
fold improved anti-C. neoformans H99 activity vs APX001A (C. neoformans [2]; from MIC values of Table 1): 8 fold | fractional inhibitory concentration index (FICI) (C. neoformans H99): 0.37

SMILES: C[C@@H](c1nc(-c2ccc(C#N)cc2)cs1)[C@](O)(Cn1cncn1)c1cc(F)ccc1F [isavuconazole]
MIC90 (C. neoformans [4]): 0.06 µg/mL (≈ 0.137 µM)
